Experimental data as given in ChEMBL document CHEMBL3046093, “Effect of doses of fungicides and plant resistance activators on the control of Rhizoctonia foliar blight of soybean, and on Rhizoctonia solani AG1-IA in vitro development” (Crop Prot, 2006).
In brackets after ≈: the same amount, converted by molar mass. Activity calls are given as the source filed them. The calls are words filed in the database; no cut-off is given here.

What was measured:
Rhizoctonia solani [1] = test: Antifungal activity against Rhizoctonia solani AG-1 IA assessed as reduction of mycelial growth at 100 mg/l relative to control; assay type: functional; parameters: scale not given: the % may be the effect or the level left
Glycine max [2] = test: Induction of systemic acquired resistance in Glycine max (soybean) plant infected with Rhizoctonia solani AG-1 IA assessed as reduction in disease severity at 12.5 mg a.i/l applied as spray on day 10 prior to inoculation measured after 5 days relative to control; assay type: functional; parameters: scale not given: the % may be the effect or the level left
Rhizoctonia solani [3] = test: Antifungal activity against Rhizoctonia solani AG-1 IA assessed as mycelial growth at 1 mg/l (reference value: 40 mm); assay type: functional
Rhizoctonia solani [4] = test: Antifungal activity against Rhizoctonia solani AG-1 IA assessed as inhibition of mycelial growth at < 10 mg/l relative to control; assay type: functional, organism-based
Glycine max [5] = test: Induction of systemic acquired resistance in Glycine max (soybean) plant infected with Rhizoctonia solani AG-1 IA assessed as reduction in disease severity at 12.5 mg a.i/l applied as spray on day 10 prior to inoculation measured after 10 days relative to control; assay type: functional; parameters: scale not given: the % may be the effect or the level left
Rhizoctonia solani [6] = test: Antifungal activity against Rhizoctonia solani AG-1 IA assessed as mycelial growth at 0.1 mg/l (reference value: 40 mm); assay type: functional
Rhizoctonia solani [7] = test: Antifungal activity against Rhizoctonia solani AG-1 IA assessed as reduction of mycelial growth at 10 mg/l relative to control; assay type: functional; parameters: scale not given: the % may be the effect or the level left
Glycine max [8] = test: Induction of systemic acquired resistance in Glycine max (soybean) plant infected with Rhizoctonia solani AG-1 IA assessed as reduction in disease severity at 25 mg a.i/l applied as spray on day 5 prior to inoculation measured after 10 days relative to control; assay type: functional, organism-based
Rhizoctonia solani [9] = test: Fungicidal activity against Rhizoctonia solani AG-1 IA assessed as mycelial radial growth at 100 mg/l (reference value: 40 mm); assay type: functional
Rhizoctonia solani [10] = test: Fungicidal activity against Rhizoctonia solani AG-1 IA assessed as mycelial radial growth at 1 mg/l (reference value: 40 mm); assay type: functional
Rhizoctonia solani [11] = test: Curative effect against Rhizoctonia solani AG-1 IA infected soybean plant at 50 g a.i/ha applied as spray at V5 to V6 growth stage post inoculation measured after 5 to 10 days under greenhouse condition relative to control; assay type: functional, organism-based
Rhizoctonia solani [12] = test: Fungicidal activity against Rhizoctonia solani AG-1 IA assessed as mycelial radial growth at 10 mg/l (reference value: 40 mm); assay type: functional
Rhizoctonia solani [13] = test: Fungicidal activity against Rhizoctonia solani AG-1 IA assessed as inhibition of mycelial radial growth; assay type: functional, organism-based
Rhizoctonia solani [14] = test: Fungicidal activity against Rhizoctonia solani AG-1 IA assessed as mycelial radial growth at 0.1 mg/l (reference value: 40 mm); assay type: functional
Rhizoctonia solani [15] = test: Protective effect against Rhizoctonia solani AG-1 IA infected soybean plant at 50 g a.i/ha applied as spray at V5 to V6 growth stage prior to inoculation measured after 5 to 10 days under greenhouse condition relative to control; assay type: functional, organism-based
Rhizoctonia solani [16] = test: Protective effect against Rhizoctonia solani AG-1 IA infected soybean plant at 750 g a.i/ha applied as spray at V5 to V6 growth stage prior to inoculation measured after 5 to 10 days under greenhouse condition relative to control; assay type: functional, organism-based
Rhizoctonia solani [17] = test: Protective effect against Rhizoctonia solani AG-1 IA infected soybean plant at 100 g a.i/ha applied as spray at V5 to V6 growth stage prior to inoculation measured after 5 to 10 days under greenhouse condition relative to control; assay type: functional, organism-based
Rhizoctonia solani [18] = test: Curative effect against Rhizoctonia solani AG-1 IA infected soybean plant at 100 g a.i/ha applied as spray at V5 to V6 growth stage post inoculation measured after 5 to 10 days under greenhouse condition relative to control; assay type: functional, organism-based
Glycine max [19] = test: Phytotoxicity in Glycine max (soybean) plant assessed as leaf burning at 200 g a.i/ha; assay type: organism-based; details: in vivo
Glycine max [20] = test: Phytotoxicity in Glycine max (soybean) plant assessed as dwarfing at 200 g a.i/ha; assay type: organism-based; details: in vivo
[21] = Rhizoctonia solani, AG-1 IA, read-out: EC50

Row | Molecule | Activity (Rhizoctonia solani [9]) | Activity (Rhizoctonia solani [10]) | Activity (Rhizoctonia solani [12]) | EC90 (Rhizoctonia solani [13]; Rhizoctonia solani, AG-1 IA) | EC50 (Rhizoctonia solani [13]; [21]) | Activity (Rhizoctonia solani [14]) | other results
1 | CSC(=O)c1cccc2nnsc12 [ACIBENZOLAR-S-METHYL] |  |  |  |  |  |  | Activity (Rhizoctonia solani [1]): 55.2%; Activity (Glycine max [2]): 28.5%; Activity (Rhizoctonia solani [3]): 40 mm; inhibition (Rhizoctonia solani [4]): inactive; Activity (Glycine max [5]): 36%; Activity (Rhizoctonia solani [6]): 40 mm; Activity (Rhizoctonia solani [7]): 19%; Activity (Glycine max [8]): Active
2 | CO/C=C(/C(=O)OC)c1ccccc1Oc1cc(Oc2ccccc2C#N)ncn1 [AZOXYSTROBIN] | 10.3 mm | 16 mm | 13.1 mm | 33.1 µg/mL (≈ 82 µM) | 0.668 µg/mL (≈ 1.66 µM) | 15.2 mm | Activity (Rhizoctonia solani [11]): Active; Activity (Rhizoctonia solani [15]): Active
3 | CCCCNC(=O)n1c(NC(=O)OC)nc2ccccc21 [BENOMYL] | 0 mm | 9.6 mm | 0 mm | 17.4 µg/mL (≈ 60 µM) | 0.352 µg/mL (≈ 1.21 µM) | 38.8 mm | 
4 | Clc1ccc(C2(Cn3cncn3)CC(Br)CO2)c(Cl)c1 (configuration not stated) [BROMUCONAZOLE] | 0.7 mm | 8.2 mm | 3.6 mm | 4.81 µg/mL (≈ 12.8 µM) | 0.097 µg/mL (≈ 0.257 µM) | 17.9 mm | 
5 | COC(=O)Nc1nc2ccccc2[nH]1 [CARBENDAZIM] | 0 mm | 1.5 mm | 0 mm | 8.41 µg/mL (≈ 44 µM) | 0.17 µg/mL (≈ 0.889 µM) | 39 mm | 
6 | N#Cc1c(Cl)c(Cl)c(Cl)c(C#N)c1Cl [CHLOROTHALONIL] | 4.7 mm | 19.3 mm | 7.6 mm | 49.4 µg/mL (≈ 186 µM) | 0.998 µg/mL (≈ 3.75 µM) | 30 mm | 
7 | CC1COC(Cn2cncn2)(c2ccc(Oc3ccc(Cl)cc3)cc2Cl)O1 (configuration not stated) [DIFENOCONAZOLE] | 1.5 mm | 5 mm | 2.7 mm | 1.13 µg/mL (≈ 2.78 µM) | 0.023 µg/mL (≈ 0.0566 µM) | 6.6 mm | 
8 | O=[N+]([O-])c1cc(C(F)(F)F)c(Cl)c([N+](=O)[O-])c1Nc1ncc(C(F)(F)F)cc1Cl [FLUAZINAM] | 3.4 mm | 5.1 mm | 4.3 mm | 2.27 µg/mL (≈ 4.89 µM) | 0.046 µg/mL (≈ 0.0989 µM) | 9.1 mm | Activity (Rhizoctonia solani [16]): Active
9 | N#Cc1c[nH]cc1-c1cccc2c1OC(F)(F)O2 [FLUDIOXONIL] | 0 mm | 0 mm | 0 mm | 0.161 µg/mL (≈ 0.649 µM) | 0.003 µg/mL (≈ 0.0121 µM) | 7.1 mm | 
10 | CC(C)NC(=O)N1CC(=O)N(c2cc(Cl)cc(Cl)c2)C1=O [IPRODIONE] | 0 mm | 5.5 mm | 0 mm | 11.8 µg/mL (≈ 35.6 µM) | 0.237 µg/mL (≈ 0.718 µM) | 39 mm | 
11 | CO/N=C(/C(=O)OC)c1ccccc1COc1ccccc1C [KRESOXIM-METHYL] | 22 mm | 26.9 mm | 25.1 mm | 490 µg/mL (≈ 1560 µM) | 9.9 µg/mL (≈ 31.6 µM) | 26 mm | 
12 | CC12CC1(C)C(=O)N(c1cc(Cl)cc(Cl)c1)C2=O (configuration not stated) [PROCYMIDONE] | 0.6 mm | 17.6 mm | 1.2 mm |  |  | 37.2 mm | 
13 | COC(=O)N(OC)c1ccccc1COc1ccn(-c2ccc(Cl)cc2)n1 [PYRACLOSTROBIN] | 0 mm | 8.1 mm | 5.4 mm | 4.67 µg/mL (≈ 12.1 µM) | 0.094 µg/mL (≈ 0.242 µM) | 17.8 mm | Activity (Rhizoctonia solani [17]): Active; Activity (Rhizoctonia solani [18]): Active
14 | O=C(O)c1ccccc1O [SALICYLIC ACID] |  |  |  |  |  |  | Activity (Rhizoctonia solani [3]): 40 mm; inhibition (Rhizoctonia solani [4]): inactive; Activity (Rhizoctonia solani [6]): 40 mm
15 | CC(C)(C)C(O)(CCc1ccc(Cl)cc1)Cn1cncn1 (configuration not stated) [TEBUCONAZOLE] | 0 mm | 7.6 mm | 3.3 mm | 2.42 µg/mL (≈ 7.85 µM) | 0.049 µg/mL (≈ 0.159 µM) | 13.5 mm | Activity (Glycine max [19]): Toxic; Activity (Glycine max [20]): Toxic
16 | c1ccc2[nH]c(-c3cscn3)nc2c1 [THIABENDAZOLE] | 0 mm | 7.3 mm | 0 mm | 10.9 µg/mL (≈ 54.2 µM) | 0.22 µg/mL (≈ 1.09 µM) | 36.1 mm | 
17 | COC(=O)NC(=S)Nc1ccccc1NC(=S)NC(=O)OC [THIOPHANATE METHYL] | 0.4 mm | 36.7 mm | 20.8 mm | 537 µg/mL (≈ 1570 µM) | 10.8 µg/mL (≈ 31.7 µM) | 39.6 mm | 
18 | TRIPHENYLSTANNANOL [listing 1 of 2 here] |  |  |  |  |  |  | EC50 (Rhizoctonia solani [13]): 0.112 µg/mL
19 | TRIPHENYLSTANNANOL [listing 2 of 2 here] | 1 mm | 10.6 mm | 6.4 mm |  |  | 14.1 mm | EC90 (Rhizoctonia solani [13]): 5.55 µg/mL
